Test results: ChEMBL document CHEMBL4334508, “Oleanolic Acid Derivatives as Potential Inhibitors of HIV-1 Protease” (J Nat Prod, 2019)

Biological target: Protease (Human immunodeficiency virus 1, UniProt Q9YQ12)
Test: Inhibition of HIV1 protease expressed in Escherichia coli using Abz-Ala-Arg-Val-Nle-Tyr(NO2)-Glu-Ala-Nle-NH2 peptide as substrate by FRET assay

Protease, sequence (Q9YQ12 whole entry): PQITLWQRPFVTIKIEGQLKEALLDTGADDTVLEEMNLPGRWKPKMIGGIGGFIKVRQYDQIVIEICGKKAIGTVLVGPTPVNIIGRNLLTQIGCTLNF

IC50 [µM] | Structure (SMILES)
> 50 | CC1(C)CC[C@]2(C(=O)NCCCCCC(=O)NCC(=O)O)CC[C@]3(C)C(=CC[C@@H]4[C@@]5(C)CC[C@H](OC(=O)CCCC(=O)O)C(C)(C)[C@@H]5CC[C@]43C)[C@@H]2C1
> 50 | CCCCCCCCCCCC(=O)O[C@H]1CC[C@]2(C)[C@H]3CC=C4[C@@H]5CC(C)(C)CC[C@]5(C(=O)NCCCCCC(=O)NCC(=O)O)CC[C@@]4(C)[C@]3(C)CC[C@H]2C1(C)C
> 50 | CCC(=O)O[C@H]1CC[C@]2(C)[C@H]3CC=C4[C@@H]5CC(C)(C)CC[C@]5(C(=O)NCCCCCCCCCCC(=O)N[C@H](C(=O)O)C(C)C)CC[C@@]4(C)[C@]3(C)CC[C@H]2C1(C)C
17.7 | CC1(C)CC[C@]2(C(=O)NCCCC(=O)O)CC[C@]3(C)C(=CC[C@@H]4[C@@]5(C)CC[C@H](OC(=O)CCC(=O)O)C(C)(C)[C@@H]5CC[C@]43C)[C@@H]2C1
> 50 | CCC(=O)O[C@H]1CC[C@]2(C)[C@H]3CC=C4[C@@H]5CC(C)(C)CC[C@]5(C(=O)NCCCCCCCCCCC(=O)O)CC[C@@]4(C)[C@]3(C)CC[C@H]2C1(C)C
> 50 | CC1(C)CC[C@]2(C(=O)NCCCCCCCCCCC(=O)NCC(=O)O)CC[C@]3(C)C(=CC[C@@H]4[C@@]5(C)CC[C@H](OC(=O)CCCC(=O)O)C(C)(C)[C@@H]5CC[C@]43C)[C@@H]2C1
> 50 | CC(=O)O[C@H]1CC[C@]2(C)[C@H]3CC=C4[C@@H]5CC(C)(C)CC[C@]5(C(=O)NCCCCCC(=O)O)CC[C@@]4(C)[C@]3(C)CC[C@H]2C1(C)C
> 50 | CCCC(=O)O[C@H]1CC[C@]2(C)[C@H]3CC=C4[C@@H]5CC(C)(C)CC[C@]5(C(=O)NCCCCCCCCCCC(=O)NCC(=O)O)CC[C@@]4(C)[C@]3(C)CC[C@H]2C1(C)C
> 50 | C[C@H](NC(=O)CCCNC(=O)[C@]12CCC(C)(C)C[C@H]1C1=CC[C@@H]3[C@@]4(C)CC[C@H](OC(=O)CC(C)(C)CC(=O)O)C(C)(C)[C@@H]4CC[C@@]3(C)[C@]1(C)CC2)C(=O)O
> 50 | CCCC(=O)O[C@H]1CC[C@]2(C)[C@H]3CC=C4[C@@H]5CC(C)(C)CC[C@]5(C(=O)NCCCCCC(=O)NCC(=O)O)CC[C@@]4(C)[C@]3(C)CC[C@H]2C1(C)C
> 50 | CCCCCC(=O)O[C@H]1CC[C@]2(C)[C@H]3CC=C4[C@@H]5CC(C)(C)CC[C@]5(C(=O)NCCCCCC(=O)N[C@@H](C)C(=O)O)CC[C@@]4(C)[C@]3(C)CC[C@H]2C1(C)C
6.6 | C[C@H](NC(=O)CCCNC(=O)[C@]12CCC(C)(C)C[C@H]1C1=CC[C@@H]3[C@@]4(C)CC[C@H](OC(=O)CCCC(=O)O)C(C)(C)[C@@H]4CC[C@@]3(C)[C@]1(C)CC2)C(=O)O
> 50 | CCCCCCCCCCCC(=O)O[C@H]1CC[C@]2(C)[C@H]3CC=C4[C@@H]5CC(C)(C)CC[C@]5(C(=O)NCCCCCCCCCCC(=O)O)CC[C@@]4(C)[C@]3(C)CC[C@H]2C1(C)C
> 50 | CCCC(=O)O[C@H]1CC[C@]2(C)[C@H]3CC=C4[C@@H]5CC(C)(C)CC[C@]5(C(=O)NCCCC(=O)O)CC[C@@]4(C)[C@]3(C)CC[C@H]2C1(C)C
> 50 | CC(C)[C@H](NC(=O)CCCCCCCCCCNC(=O)[C@]12CCC(C)(C)C[C@H]1C1=CC[C@@H]3[C@@]4(C)CC[C@H](OC(=O)CCCC(=O)O)C(C)(C)[C@@H]4CC[C@@]3(C)[C@]1(C)CC2)C(=O)O
30.3 | CC(=O)O[C@H]1CC[C@]2(C)[C@H]3CC=C4[C@@H]5CC(C)(C)CC[C@]5(C(=O)NCCCCCC(=O)N[C@H](C(=O)O)C(C)C)CC[C@@]4(C)[C@]3(C)CC[C@H]2C1(C)C
> 50 | CC(C)[C@H](NC(=O)CCCCCNC(=O)[C@]12CCC(C)(C)C[C@H]1C1=CC[C@@H]3[C@@]4(C)CC[C@H](OC(=O)c5ccccc5)C(C)(C)[C@@H]4CC[C@@]3(C)[C@]1(C)CC2)C(=O)O
> 50 | CCCCCCCCCCCC(=O)O[C@H]1CC[C@]2(C)[C@H]3CC=C4[C@@H]5CC(C)(C)CC[C@]5(C(=O)NCCCC(=O)O)CC[C@@]4(C)[C@]3(C)CC[C@H]2C1(C)C
> 50 | CCCC(=O)O[C@H]1CC[C@]2(C)[C@H]3CC=C4[C@@H]5CC(C)(C)CC[C@]5(C(=O)NCCCC(=O)NCC(=O)O)CC[C@@]4(C)[C@]3(C)CC[C@H]2C1(C)C
> 50 | CC(=O)O[C@H]1CC[C@]2(C)[C@H]3CC=C4[C@@H]5CC(C)(C)CC[C@]5(C(=O)NCCCCCCCCCCC(=O)NCC(=O)O)CC[C@@]4(C)[C@]3(C)CC[C@H]2C1(C)C
> 50 | CCCCCCCCCCCC(=O)O[C@H]1CC[C@]2(C)[C@H]3CC=C4[C@@H]5CC(C)(C)CC[C@]5(C(=O)NCCCCCC(=O)N[C@H](C(=O)O)C(C)C)CC[C@@]4(C)[C@]3(C)CC[C@H]2C1(C)C
23.2 | CC(C)[C@H](NC(=O)CCCCCNC(=O)[C@]12CCC(C)(C)C[C@H]1C1=CC[C@@H]3[C@@]4(C)CC[C@H](OC(=O)CC(C)(C)CC(=O)O)C(C)(C)[C@@H]4CC[C@@]3(C)[C@]1(C)CC2)C(=O)O
> 50 | CC1(C)CC[C@]2(C(=O)NCCCCCCCCCCC(=O)O)CC[C@]3(C)C(=CC[C@@H]4[C@@]5(C)CC[C@H](OC(=O)CCCC(=O)O)C(C)(C)[C@@H]5CC[C@]43C)[C@@H]2C1

IC50 [µM] | Structure (SMILES)
3.1 | CC1(C)CC[C@]2(C(=O)NCCCCCC(=O)NCC(=O)O)CC[C@]3(C)C(=CC[C@@H]4[C@@]5(C)CC[C@H](OC(=O)c6ccccc6C(=O)O)C(C)(C)[C@@H]5CC[C@]43C)[C@@H]2C1
> 50 | CCCCCCCCCCCC(=O)O[C@H]1CC[C@]2(C)[C@H]3CC=C4[C@@H]5CC(C)(C)CC[C@]5(C(=O)NCCCC(=O)NCC(=O)O)CC[C@@]4(C)[C@]3(C)CC[C@H]2C1(C)C
> 50 | C[C@H](NC(=O)CCCCCNC(=O)[C@]12CCC(C)(C)C[C@H]1C1=CC[C@@H]3[C@@]4(C)CC[C@H](OC(=O)c5ccccc5)C(C)(C)[C@@H]4CC[C@@]3(C)[C@]1(C)CC2)C(=O)O
> 50 | CC1(C)CC[C@]2(C(=O)NCCCCCC(=O)NCC(=O)O)CC[C@]3(C)C(=CC[C@@H]4[C@@]5(C)CC[C@H](OC(=O)CCC(=O)O)C(C)(C)[C@@H]5CC[C@]43C)[C@@H]2C1
> 50 | CC1(C)CC[C@]2(C(=O)NCCCC(=O)O)CC[C@]3(C)C(=CC[C@@H]4[C@@]5(C)CC[C@H](OC(=O)c6ccccc6)C(C)(C)[C@@H]5CC[C@]43C)[C@@H]2C1
> 50 | CCCCCC(=O)O[C@H]1CC[C@]2(C)[C@H]3CC=C4[C@@H]5CC(C)(C)CC[C@]5(C(=O)NCCCC(=O)O)CC[C@@]4(C)[C@]3(C)CC[C@H]2C1(C)C
> 50 | CCC(=O)O[C@H]1CC[C@]2(C)[C@H]3CC=C4[C@@H]5CC(C)(C)CC[C@]5(C(=O)NCCCC(=O)N[C@H](C(=O)O)C(C)C)CC[C@@]4(C)[C@]3(C)CC[C@H]2C1(C)C
> 50 | CCC(=O)O[C@H]1CC[C@]2(C)[C@H]3CC=C4[C@@H]5CC(C)(C)CC[C@]5(C(=O)NCCCC(=O)N[C@@H](C)C(=O)O)CC[C@@]4(C)[C@]3(C)CC[C@H]2C1(C)C
> 50 | CCCCCCCCCCCC(=O)O[C@H]1CC[C@]2(C)[C@H]3CC=C4[C@@H]5CC(C)(C)CC[C@]5(C(=O)NCCCCCCCCCCC(=O)N[C@@H](C)C(=O)O)CC[C@@]4(C)[C@]3(C)CC[C@H]2C1(C)C
> 50 | CCCCCC(=O)O[C@H]1CC[C@]2(C)[C@H]3CC=C4[C@@H]5CC(C)(C)CC[C@]5(C(=O)NCCCCCC(=O)N[C@H](C(=O)O)C(C)C)CC[C@@]4(C)[C@]3(C)CC[C@H]2C1(C)C
> 50 | CC(=O)O[C@H]1CC[C@]2(C)[C@H]3CC=C4[C@@H]5CC(C)(C)CC[C@]5(C(=O)NCCCC(=O)NCC(=O)O)CC[C@@]4(C)[C@]3(C)CC[C@H]2C1(C)C
1 | CC1(C)CC[C@]2(C(=O)NCCCCCC(=O)O)CC[C@]3(C)C(=CC[C@@H]4[C@@]5(C)CC[C@H](OC(=O)CCCC(=O)O)C(C)(C)[C@@H]5CC[C@]43C)[C@@H]2C1
> 50 | CCCCCC(=O)O[C@H]1CC[C@]2(C)[C@H]3CC=C4[C@@H]5CC(C)(C)CC[C@]5(C(=O)NCCCCCC(=O)NCC(=O)O)CC[C@@]4(C)[C@]3(C)CC[C@H]2C1(C)C
> 50 | C[C@H](NC(=O)CCCCCCCCCCNC(=O)[C@]12CCC(C)(C)C[C@H]1C1=CC[C@@H]3[C@@]4(C)CC[C@H](OC(=O)CC(C)(C)CC(=O)O)C(C)(C)[C@@H]4CC[C@@]3(C)[C@]1(C)CC2)C(=O)O
0.59 | CC(C)[C@H](NC(=O)CCCCCNC(=O)[C@]12CCC(C)(C)C[C@H]1C1=CC[C@@H]3[C@@]4(C)CC[C@H](OC(=O)c5ccccc5C(=O)O)C(C)(C)[C@@H]4CC[C@@]3(C)[C@]1(C)CC2)C(=O)O
> 50 | CC(C)[C@H](NC(=O)CCCNC(=O)[C@]12CCC(C)(C)C[C@H]1C1=CC[C@@H]3[C@@]4(C)CC[C@H](OC(=O)c5ccccc5)C(C)(C)[C@@H]4CC[C@@]3(C)[C@]1(C)CC2)C(=O)O
> 50 | CC(C)(CC(=O)O)CC(=O)O[C@H]1CC[C@]2(C)[C@H]3CC=C4[C@@H]5CC(C)(C)CC[C@]5(C(=O)NCCCCCCCCCCC(=O)NCC(=O)O)CC[C@@]4(C)[C@]3(C)CC[C@H]2C1(C)C
> 50 | CC(C)(CC(=O)O)CC(=O)O[C@H]1CC[C@]2(C)[C@H]3CC=C4[C@@H]5CC(C)(C)CC[C@]5(C(=O)NCCCC(=O)NCC(=O)O)CC[C@@]4(C)[C@]3(C)CC[C@H]2C1(C)C
> 50 | C[C@H](NC(=O)CCCNC(=O)[C@]12CCC(C)(C)C[C@H]1C1=CC[C@@H]3[C@@]4(C)CC[C@H](OC(=O)CCC(=O)O)C(C)(C)[C@@H]4CC[C@@]3(C)[C@]1(C)CC2)C(=O)O
> 50 | CCCC(=O)O[C@H]1CC[C@]2(C)[C@H]3CC=C4[C@@H]5CC(C)(C)CC[C@]5(C(=O)NCCCCCCCCCCC(=O)N[C@H](C(=O)O)C(C)C)CC[C@@]4(C)[C@]3(C)CC[C@H]2C1(C)C
47.1 | C[C@H](NC(=O)CCCNC(=O)[C@]12CCC(C)(C)C[C@H]1C1=CC[C@@H]3[C@@]4(C)CC[C@H](OC(=O)c5ccccc5)C(C)(C)[C@@H]4CC[C@@]3(C)[C@]1(C)CC2)C(=O)O
19.8 | CC(C)[C@H](NC(=O)CCCNC(=O)[C@]12CCC(C)(C)C[C@H]1C1=CC[C@@H]3[C@@]4(C)CC[C@H](OC(=O)CCCC(=O)O)C(C)(C)[C@@H]4CC[C@@]3(C)[C@]1(C)CC2)C(=O)O
